Results taken from US6703347B2, “Isothiazole derivatives and their use as pesticides” (Syngenta Limited, priority 2000, dated 2004).

Assays:
[1] = system: peach potato aphids (Myzus persicae); details: 500 ppm by weight; infested Chinese cabbage leaves sprayed; mortality assessed after three days
Method: This Example illustrates the pesticidal/insecticidal properties of compounds of formula (I). The activities of individual compounds of formula (I) were determined using a variety of pests. The pests were treated with a liquid composition containing 500 parts per million (ppm) by weight of a compound of formula (I). Each composition was made by dissolving the compound in an acetone and ethanol (50:50 by volume) mixture and diluting the solution with water containing 0.05% by volume of a wetting agent, SYNPERONIC NP8, until the liquid composition contained the required concentration of the compound.
(§1) The test procedure adopted with regard to each pest was essentially the same and comprised supporting a number of the pests on a medium, which was usually a substrate, a host plant or a foodstuff on which the pests feed, and treating either or both the medium and the pests with a composition. Pest mortality was assessed usually between two and five days after treatment.
In each test against peach potato aphids (Myzus persicae), Chinese cabbage leaves were infested with aphids, the infested leaves were sprayed with a test composition and pest mortality was assessed after three days.

[2] = system: fruit flies (Drosophila melanogaster); assay: pesticidal test against fruit flies; details: liquid composition containing 500 ppm by weight of compound
Method: (§2) The activities of individual compounds of formula (I) were determined using a variety of pests. The pests were treated with a liquid composition containing 500 parts per million (ppm) by weight of a compound of formula (I). Each composition was made by dissolving the compound in an acetone and ethanol (50:50 by volume) mixture and diluting the solution with water containing 0.05% by volume of a wetting agent, SYNPERONIC NP8, until the liquid composition contained the required concentration of the compound.
as §1
(§3) Similar tests were conducted against, independently, two-spotted spider mites (Tetranychus urticae), fruit flies (Drosophila melanogaster), tobacco budworms (Heliothis virescens), diamond back moth (Plutella xylostella) and corn root worm (Diabrotica balteata).

[3] = system: tobacco budworms (Heliothis virescens); assay: pesticidal test against tobacco budworms; details: liquid composition containing 500 ppm by weight of compound
Method: as §2, §1, §3

[4] = system: diamond back moth (Plutella xylostella); assay: pesticidal test against diamond back moth; details: liquid composition containing 500 ppm by weight of compound
Method: as §2, §1, §3

[5] = system: corn root worm (Diabrotica balteata); assay: pesticidal test against corn root worm; details: liquid composition containing 500 ppm by weight of compound
Method: as §2, §1, §3

SMILES	mortality (score) Mp [1]	mortality (score) Dm [2]	mortality (score) Hv [3]	mortality (score) Px [4]	mortality (score) Db [5]
CCOCN(C(=O)C(C)c1ccc2sc(CC(C)C)nc2c1)c1snc(CC)c1Cl (stereo not drawn) [Table 39 Compound 156]	9 (9 indicates 80-100% mortality)	0 (represents less than 40% mortality)	9 (9 indicates 80-100% mortality)	9 (9 indicates 80-100% mortality)	–
CCOCN(C(=O)C(C)c1ccc2oc(CC(C)C)nc2c1)c1snc(CC)c1Cl (stereo not drawn) [Table 1 Compound 156]	9 (9 indicates 80-100% mortality)	–	–	–	–
Cc1nsc(NC(=O)C(F)c2ccc3sc(CC(C)(C)C)nc3c2)c1Cl (stereo not drawn) [Table 42 Compound 7]	9 (9 indicates 80-100% mortality)	9 (9 indicates 80-100% mortality)	9 (9 indicates 80-100% mortality)	5 (5 indicates 40-79% mortality)	9 (9 indicates 80-100% mortality)
CCOCN(C(=O)C(C)c1ccc2oc(C(F)(F)C(F)(F)C(F)(F)F)nc2c1)c1snc(CC)c1Cl (stereo not drawn) [Table 1 Compound 160]	9 (9 indicates 80-100% mortality)	9 (9 indicates 80-100% mortality)	–	9 (9 indicates 80-100% mortality)	9 (9 indicates 80-100% mortality)
CCc1nsc(NC(=O)C(F)c2ccc3oc(CC(C)C)nc3c2)c1Cl (stereo not drawn) [Table 5 Compound 86]	9 (9 indicates 80-100% mortality)	9 (9 indicates 80-100% mortality)	9 (9 indicates 80-100% mortality)	9 (9 indicates 80-100% mortality)	–
CCc1nsc(NC(=O)C(C)c2ccc3sc(CC(C)(C)C)nc3c2)c1Cl (stereo not drawn) [Table 39 Compound 87]	0 (represents less than 40% mortality)	0 (represents less than 40% mortality)	9 (9 indicates 80-100% mortality)	9 (9 indicates 80-100% mortality)	9 (9 indicates 80-100% mortality)
CCc1nsc(NC(=O)C(F)c2ccc3oc(CC(C)(C)C)nc3c2)c1Cl (stereo not drawn) [Table 5 Compound 87]	9 (9 indicates 80-100% mortality)	9 (9 indicates 80-100% mortality)	9 (9 indicates 80-100% mortality)	9 (9 indicates 80-100% mortality)	–
CCOCN(C(=O)C(F)c1ccc2oc(CC(C)(C)C)nc2c1)c1snc(CC)c1Cl (stereo not drawn) [Table 5 Compound 157]	9 (9 indicates 80-100% mortality)	9 (9 indicates 80-100% mortality)	9 (9 indicates 80-100% mortality)	9 (9 indicates 80-100% mortality)	9 (9 indicates 80-100% mortality)
CCOCN(C(=O)CCc1ccc2oc(CC(C)(C)C)nc2c1)c1snc(C)c1Cl [Table 82 Compound 77]	9 (9 indicates 80-100% mortality)	0 (represents less than 40% mortality)	0 (represents less than 40% mortality)	0 (represents less than 40% mortality)	–
CCOCN(C(=O)C(F)c1ccc2oc(CC(C)(C)C)nc2c1)c1snc(C)c1Cl (stereo not drawn) [Table 5 Compound 77]	9 (9 indicates 80-100% mortality)	0 (represents less than 40% mortality)	5 (5 indicates 40-79% mortality)	9 (9 indicates 80-100% mortality)	9 (9 indicates 80-100% mortality)
CCOCN(C(=O)C(C)c1ccc2sc(CC(C)(C)C)nc2c1)c1snc(CC)c1Cl (stereo not drawn) [Table 39 Compound 157]	9 (9 indicates 80-100% mortality)	0 (represents less than 40% mortality)	9 (9 indicates 80-100% mortality)	9 (9 indicates 80-100% mortality)	9 (9 indicates 80-100% mortality)
CCc1nsc(NC(=O)C(C)c2ccc3oc(CC(C)C)nc3c2)c1Cl (stereo not drawn) [Table 1 Compound 86]	9 (9 indicates 80-100% mortality)	9 (9 indicates 80-100% mortality)	–	9 (9 indicates 80-100% mortality)	9 (9 indicates 80-100% mortality)
CCOCN(C(=O)C(F)c1ccc2oc(C(F)(F)C(F)(F)C(F)(F)F)nc2c1)c1snc(CC)c1Cl (stereo not drawn) [Table 5 Compound 160]	9 (9 indicates 80-100% mortality)	0 (represents less than 40% mortality)	–	9 (9 indicates 80-100% mortality)	9 (9 indicates 80-100% mortality)
CCOCN(C(=O)C(C)c1ccc2oc(CC(C)C)nc2c1)c1snc(C)c1Cl (stereo not drawn) [Table 1 Compound 76]	9 (9 indicates 80-100% mortality)	9 (9 indicates 80-100% mortality)	5 (5 indicates 40-79% mortality)	9 (9 indicates 80-100% mortality)	9 (9 indicates 80-100% mortality)
CCOCN(C(=O)C(C)c1ccc2oc(CC(F)(F)F)nc2c1)c1snc(C)c1Cl (stereo not drawn) [Table 1 Compound 78]	9 (9 indicates 80-100% mortality)	9 (9 indicates 80-100% mortality)	9 (9 indicates 80-100% mortality)	9 (9 indicates 80-100% mortality)	9 (9 indicates 80-100% mortality)
Cc1nsc(NC(=O)C(C)c2ccc3oc(CC(C)C)nc3c2)c1Cl (stereo not drawn) [Table 1 Compound 6]	0 (represents less than 40% mortality)	0 (represents less than 40% mortality)	–	9 (9 indicates 80-100% mortality)	9 (9 indicates 80-100% mortality)
CCc1nsc(NC(=O)C(OC)c2ccc3oc(CC(C)C)nc3c2)c1Cl (stereo not drawn) [Table 9 Compound 86]	9 (9 indicates 80-100% mortality)	5 (5 indicates 40-79% mortality)	9 (9 indicates 80-100% mortality)	9 (9 indicates 80-100% mortality)	9 (9 indicates 80-100% mortality)
Cc1nsc(NC(=O)C(F)c2ccc3oc(C(F)(F)C(F)(F)C(F)(F)F)nc3c2)c1Cl (stereo not drawn) [Table 5 Compound 10]	9 (9 indicates 80-100% mortality)	9 (9 indicates 80-100% mortality)	9 (9 indicates 80-100% mortality)	9 (9 indicates 80-100% mortality)	9 (9 indicates 80-100% mortality)
Cc1nsc(NC(=O)C(F)c2ccc3oc(CC(C)C)nc3c2)c1Cl (stereo not drawn) [Table 5 Compound 6]	9 (9 indicates 80-100% mortality)	9 (9 indicates 80-100% mortality)	–	9 (9 indicates 80-100% mortality)	9 (9 indicates 80-100% mortality)
CCc1nsc(NC(=O)C(CC)c2ccc3oc(C(F)(F)C(F)(F)C(F)(F)F)nc3c2)c1Cl (stereo not drawn) [Table 2 Compound 90]	0 (represents less than 40% mortality)	0 (represents less than 40% mortality)	9 (9 indicates 80-100% mortality)	–	0 (represents less than 40% mortality)
CCc1nsc(NC(=O)C(C)c2ccc3oc(CC(C)(C)C)nc3c2)c1Cl (stereo not drawn) [Table 1 Compound 87]	9 (9 indicates 80-100% mortality)	9 (9 indicates 80-100% mortality)	–	9 (9 indicates 80-100% mortality)	9 (9 indicates 80-100% mortality)
CCc1nsc(NC(=O)C(F)c2ccc3oc(C(F)(F)C(F)(F)C(F)(F)F)nc3c2)c1Cl (stereo not drawn) [Table 5 Compound 90]	9 (9 indicates 80-100% mortality)	9 (9 indicates 80-100% mortality)	–	9 (9 indicates 80-100% mortality)	9 (9 indicates 80-100% mortality)
CCc1nsc(NC(=O)C(C)c2ccc3oc(CC(F)(F)F)nc3c2)c1Cl (stereo not drawn) [Table 1 Compound 88]	9 (9 indicates 80-100% mortality)	0 (represents less than 40% mortality)	–	9 (9 indicates 80-100% mortality)	9 (9 indicates 80-100% mortality)
CCc1nsc(NC(=O)C(C)c2ccc3oc(C(F)(F)C(F)(F)C(F)(F)F)nc3c2)c1Cl (stereo not drawn) [Table 1 Compound 90]	0 (represents less than 40% mortality)	0 (represents less than 40% mortality)	–	9 (9 indicates 80-100% mortality)	9 (9 indicates 80-100% mortality)
CCOCN(C(=O)C(C)c1ccc2oc(C(F)(F)C(F)(F)F)nc2c1)c1snc(CC)c1Cl (stereo not drawn) [Table 1 Compound 159]	9 (9 indicates 80-100% mortality)	9 (9 indicates 80-100% mortality)	–	9 (9 indicates 80-100% mortality)	9 (9 indicates 80-100% mortality)
CCc1nsc(NC(=O)C(C)c2ccc3oc(C)nc3c2)c1Cl (stereo not drawn) [Table 1 Compound 81]	9 (9 indicates 80-100% mortality)	9 (9 indicates 80-100% mortality)	–	9 (9 indicates 80-100% mortality)	9 (9 indicates 80-100% mortality)
CCC(C(=O)Nc1snc(C)c1Cl)c1ccc2oc(C(F)(F)C(F)(F)C(F)(F)F)nc2c1 (stereo not drawn) [Table 2 Compound 10]	5 (5 indicates 40-79% mortality)	0 (represents less than 40% mortality)	9 (9 indicates 80-100% mortality)	–	9 (9 indicates 80-100% mortality)
